Source: patent US20240043842A1, “MUSCLE RETENTION IN AGING AND DUCHENNE MUSCULAR DYSTROPHY (DMD) THROUGH S1P INHIBITION” (Washington University, priority 2022, published 2024)

Columns and labels:
[1] = test system: C2C12 cells; experiment: MSS51 expression by qPCR in C2C12 cells treated with vehicle or TGF-β1; type: cell-based, murine; conditions: scrambled and S1P-depleted C2C12 cells, 50 ng/ml for 5 h, versus vehicle
Method: Total RNA was isolated from C2C12 cells, skeletal muscle, heart, adipose, kidney, and liver with RNA STAT-60 (Tel-Test Inc) as per manufacturer's instructions. For tissues, RNA was isolated by disrupting tissue in RNA STAT-60 using […] (Qiagen) and a TissueLyser II (Qiagen). RNA was reverse transcribed into cDNA using the High-Capacity cDNA Reverse Transcription Kit (Applied Biosystems). Quantitative real-time PCR was performed using Power SYBR green (Applied Biosystems) and transcripts quantified on an ABI QuantiStudio 3 sequence detection system (Applied Biosystems). Data was normalized to 36B4 expression, unless otherwise noted, and results analyzed using the 2^−ΔΔCt method and reported as relative units to controls.
C2C12 cells were plated onto 6-well plates at a 2×10^5 density and 24 h later transfected with either negative control siRNA (Negative Control No. 1 siRNA, Life Technologies) or custom siRNAs targeting S1P (Silencer Select siRNAs, Life Technologies) using Lipofectamine RNAiMAX as per manufacturer's instructions. After 48 h, cells were either harvested for gene expression analysis or differentiated with DMEM supplemented with 2% horse serum. Two days after differentiation, cells were harvested for gene expression analysis. […]

[2] = test system: C2C12 cells; experiment: Western blot of phosphorylated Smad 2 and AKT in TGF-β1-treated C2C12 cells; type: cell-based, murine; conditions: TGF-β1-treated versus untreated cells, whole-cell lysates
Method: C2C12 cells were plated onto 6-well plates at a 2×10^5 density and 24 h later transfected with either negative control siRNA (Negative Control No. 1 siRNA, Life Technologies) or custom siRNAs targeting S1P (Silencer Select siRNAs, Life Technologies) using Lipofectamine RNAiMAX as per manufacturer's instructions. After 48 h, cells were either harvested for gene expression analysis or differentiated with DMEM supplemented with 2% horse serum. Two days after differentiation, cells were harvested for gene expression analysis. For TGF-β1 treatment studies, three days post-differentiation, cells were treated with 50 ng/ml TGF-β1 (R&D) for 5 h then harvested for downstream endpoints.
Skeletal muscle whole protein lysates were generated by homogenizing tissues in lysis buffer (20 mM Tris, 15 mM NaCl, 1 mM EDTA, 0.2% NP-40, and 10% glycerol) supplemented with 2× Protease Complete cocktail tablet (Roche) and 1× Phosphatase Inhibitors (Roche, Mannheim, Germany) with stainless steel beads in a TissueLyzer II (Qiagen). Protein lysates were rotated for 45 min at 4° C., followed by centrifugation at 15,000×g for 15 min at 4° C. Protein was quantified by bicinchoninic acid assay (BCA, Pierce Biotechnology), equal amounts of protein were resolved on a 4-15 SDS-PAGE gradient gel (Bio-Rad), and transferred to PVDF-FL membrane (MilliporeSigma). […]

## TGF-β1: recombinant TGF-β1 (R&D) used to treat C2C12 cells
[1]
  MSS51 expression in the presence of TGF-β1: increased
[2]
  Smad 2 phosphorylation induced by TGF-β1: induced
